According to patent US20240209389A1, “PLANT HAVING ENHANCED RESISTANCE AGAINST COLORADO POTATO BEETLE AND METHOD FOR PRODUCING SAME, AND METHOD FOR EVALUATING RESISTANCE AGAINST COLORADO POTATO BEETLE IN PLANT” (KANEKA CORPORATION, priority 2020, published 2024):

Tests used:
[1] = system: Sc23ACT; test: Detection of in vitro enzyme activity of 23ACT (LC-MS of reaction product); type: biochemical, S. chacoense; conditions: 50 μM substrate, crude extraction fraction of E. coli expressing Sc23ACT, 400 μM acetyl CoA, pH 7.2
Description: (§1) First, in order to synthesize 23ACT in vitro, the S123ACT gene and the Sc23ACT gene were each linked to a pCold ProS2 (manufactured by Takara Bio Inc.), and were introduced into E. coli BL21 (DE3). The obtained recombinant E. coli was cultured at 37° C. until the OD600 value reached 0.5, was cooled to 15° C., and was left to stand for 30 minutes. IPTG was added thereto so that the final concentration reached 0.1 mM, and the mixture was cultured under shaking at 15° C. for 24 hours, to induce expression of the recombinant protein. Then, the E. coli bodies whose expression was induced were collected, and were suspended in a sonication buffer [50 mM Bis-Tris-HCl (pH 7.0), 150 mM NaCl, 1 mM dithiothreitol, 10% glycerol]. After an ultrasonic crushing machine was used to crush bacterial cells, the mixture was subjected to centrifugal separation, and crude extraction fractions were obtained from the supernatant. A 100 mM Bis-Tris-HCl solution (pH 7.2, containing 400 μM acetyl COA) containing a 50 μM substrate was added to the mixture, and was allowed to react.
(§2) The obtained reaction product was analyzed through LC-MS (manufactured by Waters, product name: UPLC-ESI-MS ACQUITY). As the column, ACQUITY HSS T3 (1.8 μm φ2.1×100 mm) (manufactured by Waters) was used. In LC analysis, gradient elution was performed using a mobile phase (A: 0.1% formic acid water and B: acetonitrile). The gradient elution was performed under the condition: 0 to 30 minutes, 90% A/10% B to 45% A/55% B; 30 to 31 minutes, 45% A/55% B to 100% B; and maintaining for from 31 to 35 minutes, 100% B.

[2] = system: S123ACT; test: as above; type: biochemical, S. lycopersicum; conditions: 50 μM substrate, crude extraction fraction of E. coli expressing S123ACT, 400 μM acetyl CoA, pH 7.2
Description: as §1, §2

[3] = system: Sc23DOX; test: Detection of in vitro enzyme activity of 23DOX (LC-MS of reaction product); type: biochemical, S. chacoense; conditions: 50 μM substrate, crude extraction fraction of E. coli expressing Sc23DOX, 2-oxoglutaric acid, sodium ascorbate, FeSO4, pH 7.2
Description: (§3) First, in order to synthesize 23DOX in E. coli, the S123DOX gene and the Sc23DOX gene were each linked to a pCold ProS2 vector (manufactured by Takara Bio Inc.), and were introduced into E. coli BL21 (DE3). The obtained recombinant E. coli was cultured at 37° C. until the OD600 value reached 0.5, was cooled to 15° C., and was left to stand for 30 minutes. IPTG was added thereto so that the final concentration reached 0.1 mM, and the mixture was cultured under shaking at 15° C. for 24 hours, to induce expression of the recombinant protein.
(§4) Then, the E. coli bodies whose expression was induced were collected, and were suspended in a sonication buffer [50 mM Bis-Tris-HCl (pH 7.0), 150 mM NaCl, 1 mM dithiothreitol, 10% glycerol]. After an ultrasonic crushing machine was used to crush bacterial cells, the mixture was subjected to centrifugal separation, and crude extraction fractions were obtained from the supernatant. A 100 mM Bis-Tris-HCl solution (pH 7.2, containing 5 mM 2-oxoglutaric acid, 10 mM sodium ascorbate, and 200 μM FeSO4) containing a 50 μM substrate was added to the mixture, and was allowed to react.
(§5) The obtained reaction product was analyzed through LC-MS (manufactured by Waters, product name: UPLC-ESI-MS ACQUITY). As the column, ACQUITY HSS T3 1.8 μm φ 2.1×100 mm (manufactured by Waters) was used. […]

[4] = system: S123DOX; test: as above; type: biochemical, S. lycopersicum; conditions: 50 μM substrate, crude extraction fraction of E. coli expressing S123DOX, 2-oxoglutaric acid, sodium ascorbate, FeSO4, pH 7.2
Description: as §3, §4, §5

[5] = system: St23DOX; test: Detection of in vitro enzyme activity of St23DOX (LC-MS of reaction product); type: biochemical, S. tuberosum; conditions: same method as Example 3, crude extraction fraction of E. coli expressing St23DOX
Description: as §3, §4
The obtained reaction product was analyzed through LC-MS (manufactured by Waters, product name: UPLC-ESI-MS ACQUITY). […]
The St23DOX gene identified in Example 10 was analyzed in the same method described in Example 3. […]

[6] = system: St23ACT; test: Detection of in vitro enzyme activity of St23ACT (LC-MS of reaction product); type: biochemical, S. tuberosum; conditions: same method as Example 4, crude extraction fraction of E. coli expressing St23ACT
Description: as §1
The obtained reaction product was analyzed through LC-MS (manufactured by Waters, product name: UPLC-ESI-MS ACQUITY). As the column, ACQUITY HSS T3 (1.8 μm φ2.1×100 mm) (manufactured by Waters) was used. […]
The St23ACT gene identified in Example 12 was analyzed in the same method described in Example 4. […]

Row | Compound | acetylation of the hydroxy group of position 23 of the substrate (reaction product) [1] | acetylation of the hydroxy group of position 23 of the substrate (reaction product) [2] | introduction of a hydroxy group to position 23 of the substrate (reaction product) [3] | introduction of a hydroxy group to position 23 of the substrate (reaction product) [4] | introduction of a hydroxy group to position 23 of the substrate (reaction product) [5] | acetylation of the hydroxy group of position 23 of the substrate (reaction product) [6]
1 | CC1CC(O)C2C(C)C3C(CC4C5CC=C6CC(OC7OC(CO)C(OC8OC(C)C(O)C(O)C8O)C(O)C7OC7OC(C)C(O)C(O)C7O)CCC6(C)C5CCC43C)N2C1 [leptinine I, 3β-[2-O,4-O-bis(α-L-rhamnopyranosyl)-β-D-glucopyranosyloxy]solanid-5-en-23β-ol] | a new reaction product was not obtained | a new reaction product was not obtained | – | – | – | –
2 | C[C@H]1CC[C@@H]2[C@@H](C)[C@H]3[C@H](C[C@H]4[C@@H]5CC=C6C[C@@H](O[C@@H]7O[C@H](CO)[C@H](O)[C@H](O[C@@H]8O[C@H](CO)[C@@H](O)[C@H](O)[C@H]8O)[C@H]7O[C@@H]7O[C@@H](C)[C@H](O)[C@@H](O)[C@H]7O)CC[C@]6(C)[C@H]5CC[C@]34C)N2C1 [α-solanine] | – | – | a new reaction product was not obtained | a new reaction product was not obtained | – | –
3 | C[C@H]1CC[C@]2(NC1)O[C@H]1C[C@H]3[C@@H]4CC[C@H]5C[C@@H](O[C@@H]6O[C@H](CO)[C@H](O[C@@H]7O[C@H](CO)[C@@H](O)[C@H](O[C@@H]8OC[C@@H](O)[C@H](O)[C@H]8O)[C@H]7O[C@@H]7O[C@H](CO)[C@@H](O)[C@H](O)[C@H]7O)[C@H](O)[C@H]6O)CC[C@]5(C)[C@H]4CC[C@]3(C)[C@H]1[C@@H]2C [α-tomatine] | – | – | a product to which a hydroxy group was introduced at position 23 was obtained | a product to which a hydroxy group was introduced at position 23 was obtained | a product to which a hydroxy group was introduced at position 23 can be obtained | –
4 | 23 hydroxy tomatine | a product to which an acetoxy group was introduced at position 23 was obtained | a product to which an acetoxy group was introduced at position 23 was obtained | – | – | – | a product to which an acetoxy group was introduced at position 23 was obtained
5 | C[C@H]1C[C@H](O)[C@@H]2[C@@H](C)[C@H]3[C@H](C[C@H]4[C@@H]5CC=C6C[C@@H](O[C@@H]7O[C@H](CO)[C@H](O)[C@H](O[C@@H]8O[C@H](CO)[C@@H](O)[C@H](O)[C@H]8O)[C@H]7O[C@@H]7O[C@@H](C)[C@H](O)[C@@H](O)[C@H]7O)CC[C@]6(C)[C@H]5CC[C@]34C)N2C1 [leptinine II, 3β-[(3-O-β-D-glucopyranosyl-2-O-α-L-rhamnopyranosyl-β-D-galactopyranosyl)oxy]solanid-5-en-23β-ol] | a new reaction product was not obtained | a new reaction product was not obtained | – | – | – | –
